# From US20220313634A1, “AGENT FOR THE PROPHYLACTIC AND/OR SUPPORTIVE THERAPEUTIC TREATMENT OF PARKINSON'S DISEASE” (priority 2017, published 2022)
# Tested on: Parkinson's patients
# Assay: Patient studies of butyric acid/butyrate given with physician-directed medication
# Assay type: in vivo, human
# Method: The effect of butyric acid/butyrate was investigated in patient studies in which more than 1,000 test subjects have participated for at least one year each. A total amount of 6 g butyric acid or butyrate (as salt) was administered together with the physician-directed medication (levodopa etc.) in three daily doses with meals in the morning, at noon and in the evening.
# This is especially important because the usual medication for Parkinson's patients, not only with levodopa, can lead to considerable side effects such as dizziness, nausea, tachyarrhythmia, psychosis, dyskinesia and circulatory problems.
smiles,measurement,setting,value
"CCCC(=O)O [butyric acid/butyrate, butyric acid]","general condition, in particular with respect to the motor functions","more than 1,000 test subjects, at least one year each, total 6 g butyric acid or butyrate (as salt) in three daily doses with meals, together with levodopa etc.",Significant improvements
same,reduction of the amount of dopamine used by Parkinson's patients,patients treated with butyric acid/butyrate,at least 50%
same,"reduction of the amount of dopamine used by Parkinson's patients, in some cases","patients treated with butyric acid/butyrate, in some cases",up to 90%
